Experiments:
MLKL [1] = target: T1, MLKL (Homo sapiens, UniProt Q8NB16); experiment: Measurement of binding affinity with MLKL receptor (competitive binding assay, Kd); design: made in house; host or cells: HEK 293 cell line (T7 phage in E. coli BL21-derived host is also described)
T1 sequence (Q8NB16 1-471): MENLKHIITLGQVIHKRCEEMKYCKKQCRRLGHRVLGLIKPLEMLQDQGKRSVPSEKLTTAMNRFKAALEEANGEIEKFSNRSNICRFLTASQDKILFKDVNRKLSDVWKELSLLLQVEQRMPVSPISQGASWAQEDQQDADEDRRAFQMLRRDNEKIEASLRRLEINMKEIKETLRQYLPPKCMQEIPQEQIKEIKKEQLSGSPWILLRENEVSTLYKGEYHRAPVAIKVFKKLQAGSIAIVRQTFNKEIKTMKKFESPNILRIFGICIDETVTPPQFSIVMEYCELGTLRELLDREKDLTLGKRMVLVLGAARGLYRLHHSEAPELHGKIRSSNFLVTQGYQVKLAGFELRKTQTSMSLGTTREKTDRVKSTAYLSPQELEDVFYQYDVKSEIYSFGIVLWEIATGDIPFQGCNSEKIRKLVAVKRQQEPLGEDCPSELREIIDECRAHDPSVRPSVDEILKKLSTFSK
How it was run: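 Kd comes from a bead-based competition format: compound-dependent loss of DNA-tagged, HEK 293-expressed MLKL capture, measured as eluate kinase by qPCR. Final DMSO is 0.9%.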

FADD−/− Jurkat cells = experiment: Necroptosis inhibition assay, TNF-α-induced necroptosis (CellTiter-Glo 2.0); format: cell-based, human; details: TNF-α 15 ng/mL; for Necroptosis inhibition assay (Rescue %) 1 μM: compound 1 μM; for Necroptosis inhibition assay (Rescue %) 10 μM: compound 10 μM
How it was run: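 FADD−/− Jurkat cells preincubated 30 min at room temperature with compound at 0.1, 1 and 10 μM final, then stimulated with TNF-α (15 ng/mL final) for 20–24 h at 37 °C, 5% CO2. Viability read as ATP luminescence; cytotoxicity and necroptosis inhibition rate calculated from luminescence values.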

MLKL [2] = target: T1, MLKL; experiment: MLKL degradation assay in HepG2 cell line (western blot); format: cell-based; design: endogenous in cells; host or cells: HepG2 or HaCaT; details: cell line not given; for Degradation assay (Degradation %) 1 μM: compound 1 μM; for Degradation assay (Degradation %) 10 μM: compound 10 μM
How it was run: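 HepG2 cells were treated 20-24 h at 37 °C with compound at 1 or 10 μM final. RIPA lysates were normalized by BCA, and 10-15 μg protein per lane was resolved by SDS-PAGE. MLKL was detected by western blot with chemiluminescence.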

Row | SMILES | Kd (MLKL [1]) [nM] | Degradation assay (Degradation %) 1 μM (MLKL [2]) [%] | Degradation assay (Degradation %) 10 μM (MLKL [2]) [%] | Necroptosis inhibition assay (Rescue %) 1 μM (FADD−/− Jurkat cells; FADD−/− Jurkat cells) [%] | Necroptosis inhibition assay (Rescue %) 10 μM (FADD−/− Jurkat cells; FADD−/− Jurkat cells) [%] | Necroptosis inhibition assay (Rescue %) 1 μM (FADD−/− Jurkat cells) [%] | Necroptosis inhibition assay (Rescue %) 10 μM (FADD−/− Jurkat cells) [%]
1 | Nc1ncc(-c2cnn(C3CCN(C(=O)C4CCN(C(=O)C5CN(c6ccc7nnn(C8CCC(=O)NC8=O)c(=O)c7c6)C5)CC4)CC3)c2)nc1C(=O)O[C@@H](C(=O)Nc1ccc(F)cc1)c1ccccc1 (stereo partly drawn) [TDH-409, (R)-2-((4-fluorophenyl)amino)-2-oxo-1-phenylethyl 3-amino-6-(1-(1-(1-(1-(3-(2,6-dioxopiperidin-3-yl)-4-oxo-3,4-dihydrobenzo[d][1,2,3]triazin-6-yl)azetidine-3-carbonyl)piperidine-4-carbonyl)piperidin-4-yl)-1H-pyrazol-4-yl)pyrazine-2-carboxylate] | 1.6 | 81.20 | 71.90 | 39.62 | 24.45 | – | –
2 | Nc1ncc(-c2cnn(C3CCN(C(=O)CC4CCN(C(=O)C5CCN(c6ccc7c(c6)C(=O)N(C6CCC(=O)NC6=O)C7=O)CC5)CC4)CC3)c2)nc1C(=O)O[C@@H](C(=O)Nc1ccc(F)cc1)c1ccccc1 (stereo partly drawn) [TDH-342, (R)-2-((4-fluorophenyl)amino)-2-oxo-1-phenylethyl 3-amino-6-(1-(1-(2-(1-(1-(2-(2,6-dioxopiperidin-3-yl)-1,3-dioxoisoindolin-5-yl)piperidine-4-carbonyl)piperidin-4-yl)acetyl)piperidin-4-yl)-1H-pyrazol-4-yl)pyrazine-2-carboxylate] | 5.8 | 70.74 | 54.03 | – | – | 28.05 | 17.55
3 | Nc1ncc(-c2cnn([C@H]3CCN(CC4CCN(C(=O)COc5cccc6c5C(=O)N(C5CCC(=O)NC5=O)C6=O)CC4)C3)c2)nc1C(=O)OC(C(=O)Nc1ccc(F)cc1)c1ccccc1 (stereo partly drawn) [TDH-283, 2-((4-fluorophenyl)amino)-2-oxo-1-phenylethyl 3-amino-6-(1-((3S)-1-((1-(2-((2-(2,6-dioxopiperidin-3-yl)-1,3-dioxoisoindolin-4-yl)oxy)acetyl)piperidin-4-yl)methyl)pyrrolidin-3-yl)-1H-pyrazol-4-yl)pyrazine-2-carboxylate] | 2.1 | 4.29 | 31.1 | – | – | 44.29 | 54.92
4 | Nc1ncc(-c2cnn(C3CN(CC4CCN(C(=O)CNc5cccc6c5C(=O)N(C5CCC(=O)NC5=O)C6=O)CC4)C3)c2)nc1C(=O)OC(C(=O)Nc1ccc(F)cc1)c1ccccc1 (stereo not shown) [TDH-296, 2-((4-fluorophenyl)amino)-2-oxo-1-phenylethyl 3-amino-6-(1-(1-((1-((2-(2,6-dioxopiperidin-3-yl)-1,3-dioxoisoindolin-4-yl)glycyl)piperidin-4-yl)methyl)azetidin-3-yl)-1H-pyrazol-4-yl)pyrazine-2-carboxylate] | 22 | 75.78 | 62.01 | – | – | 25.58 | 26.91
5 | Nc1ncc(-c2cnn(C3CCN(CCCN4CCN(C(=O)c5cccc(C(=O)NC6CCC(=O)NC6=O)c5)CC4)CC3)c2)nc1C(=O)O[C@@H](C(=O)Nc1ccc(F)cc1)c1ccccc1 (stereo partly drawn) [TDH-542, (R)-2-((4-fluorophenyl)amino)-2-oxo-1-phenylethyl 3-amino-6-(1-(1-(3-(4-(3-((2,6-dioxopiperidin-3-yl)carbamoyl)benzoyl)piperazin-1-yl)propyl)piperidin-4-yl)-1H-pyrazol-4-yl)pyrazine-2-carboxylate] | 0.53 | 84.12 | 72.45 | 24.80 | 29.40 | – | –
6 | Nc1ncc(-c2ccc(N3CCN(CC4CCN(C(=O)COc5ccc6c(c5)C(=O)N(C5CCC(=O)NC5=O)C6=O)CC4)CC3)nc2)nc1C(=O)OC(C(=O)Nc1ccc(F)cc1)c1ccccc1 (stereo not shown) [TDH-256, 2-((4-fluorophenyl)amino)-2-oxo-1-phenylethyl 3-amino-6-(6-(4-((1-(2-((2-(2,6-dioxopiperidin-3-yl)-1,3-dioxoisoindolin-5-yl)oxy)acetyl)piperidin-4-yl)methyl)piperazin-1-yl)pyridin-3-yl)pyrazine-2-carboxylate] | 78 | 36.84 | 24.99 | – | – | 45.87 | 44.55
7 | Nc1ncc(-c2cnn(C3CCN(C(=O)CC4CCN(C(=O)C5CCN(c6cccc7c6C(=O)N(C6CCC(=O)NC6=O)C7=O)CC5)CC4)CC3)c2)nc1C(=O)O[C@@H](C(=O)Nc1ccc(F)cc1)c1ccccc1 (stereo partly drawn) [TDH-341, (R)-2-((4-fluorophenyl)amino)-2-oxo-1-phenylethyl 3-amino-6-(1-(1-(2-(1-(1-(2-(2,6-dioxopiperidin-3-yl)-1,3-dioxoisoindolin-4-yl)piperidine-4-carbonyl)piperidin-4-yl)acetyl)piperidin-4-yl)-1H-pyrazol-4-yl)pyrazine-2-carboxylate] | 3.5 | 70.78 | 51.56 | – | – | 38.23 | 24.8

Second part, led by results:

Row | Kd (MLKL [1]) [nM] | Degradation assay (Degradation %) 1 μM (MLKL [2]) [%] | Degradation assay (Degradation %) 10 μM (MLKL [2]) [%] | SMILES | Necroptosis inhibition assay (Rescue %) 1 μM (FADD−/− Jurkat cells; FADD−/− Jurkat cells) [%] | Necroptosis inhibition assay (Rescue %) 10 μM (FADD−/− Jurkat cells; FADD−/− Jurkat cells) [%] | Necroptosis inhibition assay (Rescue %) 1 μM (FADD−/− Jurkat cells) [%] | Necroptosis inhibition assay (Rescue %) 10 μM (FADD−/− Jurkat cells) [%]
8 | 4.4 | 19.42 | 53.09 | Nc1ncc(-c2cnn(C3CCN(CCOCCOCCOCCNC(=O)C4CN(c5ccc6c(c5)C(=O)N(C5CCC(=O)NC5=O)C6=O)C4)CC3)c2)nc1C(=O)O[C@@H](C(=O)Nc1ccc(F)cc1)c1ccccc1 (stereo partly drawn) [TDH-142, (R)-2-((4-fluorophenyl)amino)-2-oxo-1-phenylethyl 3-amino-6-(1-(1-(1-(1-(2-(2,6-dioxopiperidin-3-yl)-1,3-dioxoisoindolin-5-yl)azetidin-3-yl)-1-oxo-5,8,11-trioxa-2-azatridecan-13-yl)piperidin-4-yl)-1H-pyrazol-4-yl)pyrazine-2-carboxylate] | – | – | 12.69 | 50.51
9 | 2.8 | 60.83 | 94.76 | Nc1ncc(-c2cnn(C3CCN(C(=O)COC4CCN(C(=O)COc5ccc6c(c5)C(=O)N(C5CCC(=O)NC5=O)C6=O)CC4)CC3)c2)nc1C(=O)O[C@@H](C(=O)Nc1ccc(F)cc1)c1ccccc1 (stereo partly drawn) [TDH-394, (R)-2-((4-fluorophenyl)amino)-2-oxo-1-phenylethyl 3-amino-6-(1-(1-(2-((1-(2-((2-(2,6-dioxopiperidin-3-yl)-1,3-dioxoisoindolin-5-yl)oxy)acetyl)piperidin-4-yl)oxy)acetyl)piperidin-4-yl)-1H-pyrazol-4-yl)pyrazine-2-carboxylate] | – | – | 47.22 | 53.54
10 | 0.43 | 83.95 | 70.50 | Nc1ncc(-c2cnn(C3CCN(CCOC4CCN(C(=O)c5ccc6c(N7CCC(=O)NC7=O)coc6c5)CC4)CC3)c2)nc1C(=O)O[C@@H](C(=O)Nc1ccc(F)cc1)c1ccccc1 [TDH-554, (R)-2-((4-fluorophenyl)amino)-2-oxo-1-phenylethyl 3-amino-6-(1-(1-(2-((1-(3-(2,4-dioxotetrahydropyrimidin-1(2H)-yl)benzofuran-6-carbonyl)piperidin-4-yl)oxy)ethyl)piperidin-4-yl)-1H-pyrazol-4-yl)pyrazine-2-carboxylate] | 39.53 | 14.16 | – | –
11 | 1.5 | 78.38 | 77.07 | Nc1ncc(-c2cnn(C3CCN(C(=O)C4CCN(C(=O)CCc5ccc6c(c5)C(=O)N(C5CCC(=O)NC5=O)C6=O)CC4)CC3)c2)nc1C(=O)O[C@@H](C(=O)Nc1ccc(F)cc1)c1ccccc1 (stereo partly drawn) [TDH-381, (R)-2-((4-fluorophenyl)amino)-2-oxo-1-phenylethyl 3-amino-6-(1-(1-(1-(3-(2-(2,6-dioxopiperidin-3-yl)-1,3-dioxoisoindolin-5-yl)propanoyl)piperidine-4-carbonyl)piperidin-4-yl)-1H-pyrazol-4-yl)pyrazine-2-carboxylate] | – | – | 32.48 | 28.99
